Common to all, as to assay type: in vivo
In series [1] the test system is ICR male mice. Briefly: elevated plus-maze model test. As for the experimental part:
Animals and Drugs: ICR male mice weighing from 20 g to 28 g (5 or 6 weeks) were purchased from Daehan Biolink Co., Ltd. (Korea) and housed for at least 7 days prior to the experiment under 12-h light/dark cycle (lights on at 7:00 am) in a temperature-controlled (22±2° C.) animal facility. Food and water were freely accessible. All mice were maintained in accordance with the National Institute of Toxicological Research on the Korea Food and Drug Administration guideline for the care and use of laboratory animals. Diazepam (ample type) was purchased from Dea-Won Pharmaceutical Co. (South Korea) and was orally administered 30 min prior to the experiment. Obovatol was kindly gifted from Korea Research Institute of Bioscience and Biotechnology and was orally administered 60 min prior to the experiment.
Treatment of Test Sample: obovatol prepared from Example 1 was dissolved in 0.1 ml of ethanol and diluted with 0.1% Tween-80 in order to administrate with an amount of 0.1 ml/10 g per weight of test animal. Various concentrations of test sample (obovatol), i.e., 0.2, 0.5 and 1 mg/kg were orally administrated at 1 hour prior to the experiment and […] of diazepam was peritoneally administrated into animal at 30 mins prior to the experiment.
To determine the anti-anxiety activity after administration of obovatol, elevated plus-maze model test was performed as follow in accordance with procedure cited in the literature (Dawson, G. R. et al., Trends in Pharmacological Sciences, 16, pp. 33-36, 1995).
Elevated plus-maze apparatus consists of two perpendicular open (30×5 cm) and two closed arms (30×5 cm) with 15 cm high walls, extending from the central platform (5×5 cm). […] All experimental sessions were recorded with a video camera mounted vertically above the maze. The activity on the open arm was evaluated as: 1) time spent on the open arms relative to the total time spent in the plus-maze, expressed as a percentage (100× time spent on open arm/total time in the plus-maze); 2) the number of entries into both open and closed arms, expressed as a percentage (100× open/total entries). […]

Series [2] concerns ICR male mice. Briefly: locomoter activity test. As to conditions: oral 0.2, 0.5 and 1.0 mg/kg; dose dependent. As for the experimental part: All the animals used in the test are prepared in the similar method according to Experimental Example 1.
To determine and re-confirm the anti-anxiety activity of obovatol, following locomoter activity test was performed as follow in accordance with the procedure cited in the literature (Kulkarni S. K. et al., Methods and Findings in Experimental and Clinical Pharmacology, 18, pp. 219-230, 1996).
All the animals were transferred to test cage (diameter: 20 cm, height: 18 cm) one hour prior to the administration of test samples, acclimated the environment for 10 mins and the locomoter activity was determined automatically at every 1 hour.

In series [3] the test system is ICR mice. Put plainly: acute toxicity test on ICR mice. As to conditions: oral 10, 100 and 1000 mg/kg, observed for 2 weeks. As for the experimental part: (§1) The acute toxicity tests on ICR mice (mean body weight 25±5 g) and Sprague-Dawley rats (235±10 g, Biogenomics Co., Ltd.) were performed using the obovatol compound. Four groups consisting of 3 mice or rats was administrated orally with 10 mg/kg, 100 mg/kg and 1000 mg/kg of test sample or solvents (0.2 mL, […].) respectively and observed for 2 weeks.

Series [4] relates to Sprague-Dawley rats. Put plainly: acute toxicity test on Sprague-Dawley rats. The note with it: oral 10, 100 and 1000 mg/kg, observed for 2 weeks. As for the experimental part: as §1

Take obovatol: the “anti-anxiety activity relative to diazepam” value in series [1] (at the same doses of the drugs, elevated plus-maze, FIG. 3 and FIG. 4) was “more potent anti-anxiety activity than diazepam”. In addition, the “percentage of time spent in the open arms” value in series [1] (oral 0.2, 0.5 and 1.0 mg/kg, 60 min prior (P<0.05, P<0.05 and P<0.005)) is listed as “significant increases”. The “percentage of entries into open arms” value in series [1] (oral 0.2, 0.5 and 1.0 mg/kg, 60 min prior, dose dependent, compared with diazepam treated group (P<0.05, P<0.05 and P<0.005)) is given as “significantly increased”. Besides, the locomoter activity result in series [2] was “significantly decreased”. Also, the “treatment-related effects on mortality, clinical signs, body weight changes and gross findings” value in series [3] and in series [4] was “no treatment-related effects” throughout.

The record behind these values is patent publication US8268292B2, “Obovatol having anti-anxiety activity” (Korea Research Institute of Bioscience and Biotechnology, priority 2005, dated 2012).
